# Results as given in publication PMC8213057, “Targeting ALK2: An Open Science Approach to Developing Therapeutics for the Treatment of Diffuse Intrinsic Pontine Glioma” (Journal of Medicinal Chemistry, 2020).
# How the values were obtained:
# ERN1/IRE1 = ERN1/IRE1 (Homo sapiens, UniProt O75460); assay: biochemical; settings: read-out: % enzyme activity, 1 μM; Run 1, Run 2
# DYRK1B = DYRK1B (Homo sapiens, UniProt Q9Y463); assay: biochemical; settings: read-out: % enzyme activity, 1 μM; Run 1, Run 2
# CLK4 = CLK4 (Homo sapiens, UniProt Q9HAZ1); assay: biochemical; settings: read-out: % enzyme activity, 1 μM; Run 1, Run 2
# CLK4, sequence (Q9HAZ1 whole entry): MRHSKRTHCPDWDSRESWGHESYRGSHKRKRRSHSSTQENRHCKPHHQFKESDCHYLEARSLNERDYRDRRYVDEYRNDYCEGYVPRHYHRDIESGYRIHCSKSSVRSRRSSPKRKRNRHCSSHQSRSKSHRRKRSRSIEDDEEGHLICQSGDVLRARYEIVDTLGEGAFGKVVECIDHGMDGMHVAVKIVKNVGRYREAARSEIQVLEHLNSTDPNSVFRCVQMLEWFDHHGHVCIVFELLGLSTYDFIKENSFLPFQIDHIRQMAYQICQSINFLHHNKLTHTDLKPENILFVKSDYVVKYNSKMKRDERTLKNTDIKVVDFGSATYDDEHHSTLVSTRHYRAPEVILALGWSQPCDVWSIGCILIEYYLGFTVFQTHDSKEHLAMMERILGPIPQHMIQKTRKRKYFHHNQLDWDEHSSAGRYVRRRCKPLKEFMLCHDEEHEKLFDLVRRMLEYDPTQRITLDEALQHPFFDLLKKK
# DAPK2 = DAPK2 (Homo sapiens, UniProt Q9UIK4); assay: biochemical; settings: read-out: % enzyme activity, 1 μM; Run 1, Run 2
# DAPK2, sequence (Q9UIK4 whole entry): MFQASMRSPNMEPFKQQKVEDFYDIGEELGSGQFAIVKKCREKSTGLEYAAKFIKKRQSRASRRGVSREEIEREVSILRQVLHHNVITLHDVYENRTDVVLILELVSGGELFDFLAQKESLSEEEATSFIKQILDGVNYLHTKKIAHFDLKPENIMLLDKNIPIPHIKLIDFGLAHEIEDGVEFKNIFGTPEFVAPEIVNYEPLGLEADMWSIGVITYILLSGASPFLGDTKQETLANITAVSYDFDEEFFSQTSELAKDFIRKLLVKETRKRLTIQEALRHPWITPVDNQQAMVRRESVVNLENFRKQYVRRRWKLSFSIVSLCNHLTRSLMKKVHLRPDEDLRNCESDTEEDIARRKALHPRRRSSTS
# MINK/MINK1 = biological target: T1, MINK/MINK1 (Homo sapiens, UniProt Q8N4C8); assay: 375-member kinase panel; format: biochemical; settings: Run 1, Run 2; for % enzyme activity: 1 μM; for remaining activity at 1 µM: read-out: % enzyme activity, 1 μM
# T1 construct: purchased Reaction Biology Corporation
# T1 sequence (Q8N4C8 whole entry): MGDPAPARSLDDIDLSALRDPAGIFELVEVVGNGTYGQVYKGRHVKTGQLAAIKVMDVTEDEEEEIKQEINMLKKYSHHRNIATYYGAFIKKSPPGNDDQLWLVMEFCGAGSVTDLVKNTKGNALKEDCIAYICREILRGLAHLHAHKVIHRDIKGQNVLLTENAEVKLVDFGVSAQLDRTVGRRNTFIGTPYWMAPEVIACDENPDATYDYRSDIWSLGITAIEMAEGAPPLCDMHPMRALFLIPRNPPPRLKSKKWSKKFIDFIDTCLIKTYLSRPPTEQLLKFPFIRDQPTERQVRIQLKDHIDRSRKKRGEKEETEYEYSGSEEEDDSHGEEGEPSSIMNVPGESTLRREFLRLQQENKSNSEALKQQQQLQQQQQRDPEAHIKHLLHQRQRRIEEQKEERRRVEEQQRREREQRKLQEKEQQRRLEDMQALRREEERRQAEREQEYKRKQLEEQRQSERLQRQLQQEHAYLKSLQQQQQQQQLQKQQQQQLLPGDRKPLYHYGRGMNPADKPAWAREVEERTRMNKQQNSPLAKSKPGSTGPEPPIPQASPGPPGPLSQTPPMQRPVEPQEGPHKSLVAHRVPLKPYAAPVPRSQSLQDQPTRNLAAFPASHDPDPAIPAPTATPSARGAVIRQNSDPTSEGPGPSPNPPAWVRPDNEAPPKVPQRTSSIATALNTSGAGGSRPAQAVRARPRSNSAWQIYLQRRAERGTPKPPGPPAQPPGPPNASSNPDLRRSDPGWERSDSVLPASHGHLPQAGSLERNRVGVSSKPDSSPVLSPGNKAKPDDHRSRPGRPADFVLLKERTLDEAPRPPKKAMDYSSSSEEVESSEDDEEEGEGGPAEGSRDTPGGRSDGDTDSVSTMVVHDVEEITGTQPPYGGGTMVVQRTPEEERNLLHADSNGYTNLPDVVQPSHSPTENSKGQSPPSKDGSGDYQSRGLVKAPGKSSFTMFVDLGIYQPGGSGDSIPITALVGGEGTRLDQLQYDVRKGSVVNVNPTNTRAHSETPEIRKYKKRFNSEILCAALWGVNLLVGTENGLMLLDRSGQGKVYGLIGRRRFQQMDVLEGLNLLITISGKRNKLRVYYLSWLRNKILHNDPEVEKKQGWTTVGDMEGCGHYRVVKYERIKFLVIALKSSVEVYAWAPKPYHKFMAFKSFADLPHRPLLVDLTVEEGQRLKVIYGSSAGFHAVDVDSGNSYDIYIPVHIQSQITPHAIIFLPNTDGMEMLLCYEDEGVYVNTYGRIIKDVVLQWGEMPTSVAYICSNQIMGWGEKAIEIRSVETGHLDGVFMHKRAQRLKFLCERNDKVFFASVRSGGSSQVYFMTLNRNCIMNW
# EGFR = EGFR (Homo sapiens, UniProt P00533); assay: biochemical; settings: read-out: % enzyme activity, 1 μM; Run 1, Run 2
# EGFR, sequence (P00533 25-1210): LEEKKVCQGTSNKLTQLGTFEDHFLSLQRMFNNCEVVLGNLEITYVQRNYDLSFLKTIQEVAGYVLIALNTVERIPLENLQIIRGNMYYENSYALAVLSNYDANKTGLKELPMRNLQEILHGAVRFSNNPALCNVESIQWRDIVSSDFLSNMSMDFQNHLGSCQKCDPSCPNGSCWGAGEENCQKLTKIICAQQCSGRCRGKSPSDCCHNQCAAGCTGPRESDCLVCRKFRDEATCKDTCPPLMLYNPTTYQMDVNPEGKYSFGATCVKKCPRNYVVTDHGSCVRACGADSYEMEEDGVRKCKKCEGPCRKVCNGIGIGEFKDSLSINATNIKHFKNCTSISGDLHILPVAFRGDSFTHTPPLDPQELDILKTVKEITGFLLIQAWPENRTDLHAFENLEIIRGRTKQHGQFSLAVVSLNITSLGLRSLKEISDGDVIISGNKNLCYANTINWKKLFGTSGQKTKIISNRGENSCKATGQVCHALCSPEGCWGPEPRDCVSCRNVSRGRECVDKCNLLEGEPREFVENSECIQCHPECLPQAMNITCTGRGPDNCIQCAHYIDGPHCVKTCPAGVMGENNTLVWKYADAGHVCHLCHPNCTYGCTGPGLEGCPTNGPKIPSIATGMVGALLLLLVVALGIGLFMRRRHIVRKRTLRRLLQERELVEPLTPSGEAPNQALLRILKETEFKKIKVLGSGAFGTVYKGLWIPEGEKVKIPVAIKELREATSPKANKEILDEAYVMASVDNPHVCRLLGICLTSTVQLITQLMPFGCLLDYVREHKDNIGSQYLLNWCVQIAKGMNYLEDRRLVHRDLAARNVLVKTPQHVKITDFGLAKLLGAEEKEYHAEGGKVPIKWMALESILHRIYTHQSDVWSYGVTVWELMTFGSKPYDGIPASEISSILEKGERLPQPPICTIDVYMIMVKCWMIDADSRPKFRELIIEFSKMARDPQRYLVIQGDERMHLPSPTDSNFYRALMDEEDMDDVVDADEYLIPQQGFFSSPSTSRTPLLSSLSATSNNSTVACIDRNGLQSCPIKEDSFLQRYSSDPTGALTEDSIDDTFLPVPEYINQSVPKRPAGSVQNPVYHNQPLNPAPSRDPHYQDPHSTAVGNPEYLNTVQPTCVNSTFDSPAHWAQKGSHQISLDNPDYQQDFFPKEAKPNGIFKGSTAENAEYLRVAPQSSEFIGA
# ERK2/MAPK1 = ERK2/MAPK1 (Homo sapiens, UniProt P28482); assay: biochemical; settings: read-out: % enzyme activity, 1 μM; Run 1, Run 2
# ERK2/MAPK1, sequence (P28482 whole entry): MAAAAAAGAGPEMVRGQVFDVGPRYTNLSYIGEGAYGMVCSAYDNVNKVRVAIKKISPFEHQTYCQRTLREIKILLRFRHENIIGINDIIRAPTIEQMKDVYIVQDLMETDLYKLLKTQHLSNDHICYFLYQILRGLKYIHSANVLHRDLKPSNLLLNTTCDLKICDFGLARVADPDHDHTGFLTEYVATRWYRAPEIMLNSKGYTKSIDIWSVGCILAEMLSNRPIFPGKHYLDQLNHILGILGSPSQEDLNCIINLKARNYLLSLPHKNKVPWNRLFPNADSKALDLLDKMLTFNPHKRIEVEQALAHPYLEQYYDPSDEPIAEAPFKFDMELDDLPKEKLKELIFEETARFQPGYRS
# PDGFRb = PDGFRb (Homo sapiens, UniProt P09619); assay: biochemical; settings: read-out: % enzyme activity, 1 μM; Run 1, Run 2
# ULK3 = biological target: T2, ULK3 (Homo sapiens, UniProt Q6PHR2); assay: biochemical; settings: read-out: % enzyme activity, 1 μM; Run 1, Run 2
# T2 sequence (Q6PHR2 1-472): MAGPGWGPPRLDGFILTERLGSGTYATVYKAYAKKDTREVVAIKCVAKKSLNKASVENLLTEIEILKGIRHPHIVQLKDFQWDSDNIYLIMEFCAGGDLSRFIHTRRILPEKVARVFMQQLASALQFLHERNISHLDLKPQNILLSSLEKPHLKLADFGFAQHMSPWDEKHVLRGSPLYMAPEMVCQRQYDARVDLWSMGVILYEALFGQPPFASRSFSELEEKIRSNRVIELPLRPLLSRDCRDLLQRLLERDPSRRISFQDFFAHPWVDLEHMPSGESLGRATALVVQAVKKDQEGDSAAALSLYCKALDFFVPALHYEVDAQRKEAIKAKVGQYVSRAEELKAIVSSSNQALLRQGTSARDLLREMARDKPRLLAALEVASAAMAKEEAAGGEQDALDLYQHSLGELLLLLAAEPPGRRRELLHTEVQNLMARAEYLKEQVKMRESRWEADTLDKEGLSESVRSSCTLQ
# MNK1 = MNK1 (Homo sapiens, UniProt Q9BUB5); assay: biochemical; settings: read-out: % enzyme activity, 1 μM; Run 1, Run 2
# MNK1, sequence (Q9BUB5 whole entry): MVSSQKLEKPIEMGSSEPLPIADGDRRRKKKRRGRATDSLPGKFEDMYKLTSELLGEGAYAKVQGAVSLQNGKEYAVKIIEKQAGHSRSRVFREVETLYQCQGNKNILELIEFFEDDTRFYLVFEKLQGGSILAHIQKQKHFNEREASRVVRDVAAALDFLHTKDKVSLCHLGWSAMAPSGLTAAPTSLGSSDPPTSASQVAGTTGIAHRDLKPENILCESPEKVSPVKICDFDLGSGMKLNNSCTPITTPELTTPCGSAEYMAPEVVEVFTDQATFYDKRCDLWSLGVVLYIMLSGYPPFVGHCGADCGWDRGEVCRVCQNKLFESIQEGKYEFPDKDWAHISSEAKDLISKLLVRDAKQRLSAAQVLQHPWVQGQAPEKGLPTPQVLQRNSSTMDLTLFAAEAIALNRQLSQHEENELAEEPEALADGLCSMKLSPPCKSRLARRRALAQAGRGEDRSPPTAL
# CAMK1a = CAMK1a (Homo sapiens, UniProt Q14012); assay: biochemical; settings: read-out: % enzyme activity, 1 μM; Run 1, Run 2
# CAMK1a, sequence (Q14012 whole entry): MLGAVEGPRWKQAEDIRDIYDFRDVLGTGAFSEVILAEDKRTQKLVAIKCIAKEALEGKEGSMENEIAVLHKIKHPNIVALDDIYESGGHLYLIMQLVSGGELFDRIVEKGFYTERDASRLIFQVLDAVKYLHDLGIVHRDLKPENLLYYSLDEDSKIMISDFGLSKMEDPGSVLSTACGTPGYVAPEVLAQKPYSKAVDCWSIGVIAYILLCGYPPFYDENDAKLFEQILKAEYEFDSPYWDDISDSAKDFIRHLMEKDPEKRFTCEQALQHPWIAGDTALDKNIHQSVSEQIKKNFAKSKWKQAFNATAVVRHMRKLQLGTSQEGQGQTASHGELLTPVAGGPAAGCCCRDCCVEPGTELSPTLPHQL
# STK22D/TSSK1 = biological target: T3, STK22D/TSSK1 (Homo sapiens, UniProt Q9BXA7); assay: biochemical; settings: read-out: % enzyme activity, 1 μM; Run 1, Run 2
# T3 sequence (Q9BXA7 1-367): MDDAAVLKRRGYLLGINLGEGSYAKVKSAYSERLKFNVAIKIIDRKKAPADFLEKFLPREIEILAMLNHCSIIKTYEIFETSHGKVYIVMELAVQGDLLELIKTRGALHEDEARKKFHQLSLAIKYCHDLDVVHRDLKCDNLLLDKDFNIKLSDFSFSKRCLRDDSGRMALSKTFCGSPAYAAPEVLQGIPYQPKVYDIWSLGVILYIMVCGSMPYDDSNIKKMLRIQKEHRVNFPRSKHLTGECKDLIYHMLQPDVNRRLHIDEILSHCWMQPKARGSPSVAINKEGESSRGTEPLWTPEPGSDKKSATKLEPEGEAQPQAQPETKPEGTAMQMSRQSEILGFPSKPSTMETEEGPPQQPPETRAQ
# MEKK3 = biological target: T4, MEKK3 (Homo sapiens, UniProt Q99759); settings: 1 μM; Run 1, Run 2
# T4 sequence (Q99759 1-626): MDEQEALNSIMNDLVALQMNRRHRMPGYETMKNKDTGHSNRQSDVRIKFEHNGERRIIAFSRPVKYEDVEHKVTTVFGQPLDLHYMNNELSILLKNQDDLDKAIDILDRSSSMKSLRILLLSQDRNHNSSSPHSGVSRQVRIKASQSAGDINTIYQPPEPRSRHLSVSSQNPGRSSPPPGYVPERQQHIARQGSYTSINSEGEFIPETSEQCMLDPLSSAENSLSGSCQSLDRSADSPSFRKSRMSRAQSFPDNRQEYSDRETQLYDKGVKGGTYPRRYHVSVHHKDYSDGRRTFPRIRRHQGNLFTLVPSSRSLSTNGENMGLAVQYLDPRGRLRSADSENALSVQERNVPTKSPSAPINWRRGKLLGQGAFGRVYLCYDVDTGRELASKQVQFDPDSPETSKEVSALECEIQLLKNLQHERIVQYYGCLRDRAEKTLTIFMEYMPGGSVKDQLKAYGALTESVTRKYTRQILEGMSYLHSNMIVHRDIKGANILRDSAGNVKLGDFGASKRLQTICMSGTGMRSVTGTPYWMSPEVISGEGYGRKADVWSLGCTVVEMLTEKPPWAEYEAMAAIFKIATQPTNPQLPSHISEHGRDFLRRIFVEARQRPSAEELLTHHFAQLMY
Structure (SMILES),remaining activity at 1 µM (ERN1/IRE1) [%],remaining activity at 1 µM (DYRK1B) [%],remaining activity at 1 µM (CLK4) [%],remaining activity at 1 µM (DAPK2) [%],% enzyme activity (MINK/MINK1) [%],remaining activity at 1 µM (MINK/MINK1) [%],remaining activity at 1 µM (EGFR) [%],remaining activity at 1 µM (ERK2/MAPK1) [%],remaining activity at 1 µM (PDGFRb) [%],remaining activity at 1 µM (ULK3) [%],remaining activity at 1 µM (MNK1) [%],remaining activity at 1 µM (CAMK1a) [%],remaining activity at 1 µM (STK22D/TSSK1) [%],% enzyme activity (MEKK3) [%]
"COc1cc(-c2cncc(-c3ccc(N4CCN(C)CC4)cc3)c2C)cc(F)c1C(N)=O [Compound 26a, 2-Fluoro-6-methoxy-4-(4-methyl-5-(4-(4-methylpiperazin-1-yl)phenyl)pyridin-3-yl)benzamide]",92.8,40.6,88.9,103,22.65,24.1,96,92.5,77.3,91.5,51.1,94.9,97.5,93.57
"COc1cc(-c2cncc(-c3ccc(N4C[C@@H](C)N(C)[C@@H](C)C4)cc3)c2C)cc(F)c1C(N)=O [Compound 26c, 2-Fluoro-6-methoxy-4-(4-methyl-5-(4-((3R,5S)-3,4,5-trimethylpiperazin-1-yl)phenyl)pyridin-3-yl)benzamide]",91,59.2,92.6,100,29.65,30.2,95.3,89.8,92.1,98.8,71.4,97.5,101,100.00
